Assay results as given in patent US4094979A, “Orally active cephalosporins” (American Home Products Corporation, priority 1976, dated 1978).
Values after ≈ are worked out from the molar mass of the structure shown. Counter-ions that a name gives are not always drawn.

Experiments:
E. Coli (920) = test: oral antibacterial activity in intraperitoneally infected CD-1 mice; type: in vivo
Experimental: (§1) The oral antibacterial activity of the compounds of this invention was establihsed by intraperitoneally infecting four groups of 10 male mice CD-1 strain weighing 17-19 grams with 0.5 milliliter of a standardized suspension of bacterium in 5 percent gastric mucin. The animals were then randomized and at 6 hours post infection a single dose of the antibacterial compound being tested was given orally at 7.2, 3.6, 1.8 and 0.9 mg/mouse to each group of 10 mice.
(§2) Testing against E. Coli (920-LD95), as a general representative of gram-negative bacteria, was followed by testing against Proteus vulgaris (347) as an example of a special application against a gram negative bacterium. In the oral anti-bacterial activity test, an arbitrary maximum dose is set at 7.2 milligrams per mouse below which activity must be found before a compound is considered orally active. The arbitrary maximum dose of 7.2 milligrams per mouse represents a practical dose limit in terms of the potency of known orally active antibacterial agents.

Pr Mi = test: as above; type: in vivo; conditions: P.O., single dose 6 hours post infection, 14 days
Experimental: as §1, §2

St Py = test: as above; type: in vivo; conditions: P.O., single dose 6 hours post infection, 14 days
Experimental: as §1, §2

Proteus vulgaris (347) = test: as above; type: in vivo
Experimental: as §1, §2

St Au (Smith) = test: as above; type: in vivo
Experimental: as §1, §2

Kl Pn = test: as above; type: in vivo; conditions: P.O., single dose 6 hours post infection, 14 days
Experimental: as §1, §2

Es In 65-1 = test: in vitro agar serial dilution, MIC; type: cell-based; conditions: strain 65-1
Ne Ca 819 = test: in vitro agar serial dilution, MIC; type: cell-based; conditions: strain 819
St Au Smith = test: in vitro agar serial dilution, MIC; type: cell-based; conditions: strain Smith
St Au 53-180 = test: in vitro agar serial dilution, MIC; type: cell-based; conditions: strain 53-180
Es Co 9637 = test: in vitro agar serial dilution, MIC; type: cell-based; conditions: strain 9637
My Sm 10143 = test: in vitro agar serial dilution, MIC; type: cell-based; conditions: strain 10143
St Au CHP = test: in vitro agar serial dilution, MIC; type: cell-based; conditions: strain CHP
St Au 6538P = test: in vitro agar serial dilution, MIC; type: cell-based; conditions: strain 6538P
Ps Ae 10145 = test: in vitro agar serial dilution, MIC; type: cell-based; conditions: strain 10145
Kl Pn 10031 = test: in vitro agar serial dilution, MIC; type: cell-based; conditions: strain 10031
Pr Mi 9921 = test: in vitro agar serial dilution, MIC; type: cell-based; conditions: strain 9921
Sa Pa 11737 = test: in vitro agar serial dilution, MIC; type: cell-based; conditions: strain 11737
En Ae 13048 = test: in vitro agar serial dilution, MIC; type: cell-based; conditions: strain 13048
E. Coli (E-2) = test: oral antibacterial activity in intraperitoneally infected CD-1 mice; type: in vivo
Experimental: as §1, §2

E. Coli W-102 = test: as above; type: in vivo; conditions: E. Coli W-102, at 7.2 mg/mouse
Experimental: as §1, §2

E. Coli (E-3) = test: as above; type: in vivo
Experimental: as §1, §2

[1] = E. Coli, P.O., single dose 6 hours post infection, 14 days
[2] = Pr Bu, P.O., single dose 6 hours post infection, 14 days
[3] = P.O., single dose 6 hours post infection, 14 days

`CC1=C(C(=O)O)N2C(=O)[C@@H](NC(=O)[C@H](N)C3=CCC=CC3)[C@H]2SC1` [Cephradine, reference compound] was tested, and the CD50 (E. Coli (920); [1]) was 2.27 mg/mouse, the CD50 (Pr Mi) was 2.25 mg/mouse and the CD50 (St Py) was < 0.45 mg/mouse. The CD50 (Proteus vulgaris (347); [2]) was 6.52 mg/mouse, the CD50 (St Au (Smith); [3]) was 0.140 mg/mouse and the CD50 (Kl Pn) was 2.42 mg/mouse.

In the case of `Cn1nnnc1SCC1=C(C(=O)O)N2C(=O)C(NC(=O)CCN3C(=O)CSC3=S)C2SC1` (stereo not drawn) [Ex. 1-Na salt], the CD50 (E. Coli (920); [1]) is reported as 2.35 mg/mouse, the CD50 (Pr Mi) is reported as 4.49 mg/mouse and the CD50 (St Py) is reported as > 3.6 mg/mouse. It also gave a CD50 (Proteus vulgaris (347); [2]) of 5.97 mg/mouse, a CD50 (St Au (Smith); [3]) of 2.73 mg/mouse and a CD50 (Kl Pn) of 1.36 mg/mouse.

`Cn1nnnc1SCC1=C(C(=O)O)N2C(=O)C(NC(=O)CCN3C(=O)CSC3=S)C2SC1` (stereo not drawn) [Example 1 acid] showed an MIC (Es In 65-1) of 62.5 µg/mL (≈ 121 µM), an MIC (Ne Ca 819) of 31.3 µg/mL (≈ 60.7 µM) and an MIC (St Au Smith) of 1.95 µg/mL (≈ 3.78 µM). The MIC (St Au 53-180) was 3.9 µg/mL (≈ 7.56 µM), the MIC (Es Co 9637) was 3.9 µg/mL (≈ 7.56 µM) and the MIC (My Sm 10143) was 250 µg/mL (≈ 485 µM). It also gave a CD50 (E. Coli (920); E. Coli (920), buffered to pH 4.9 in aqueous solution) of 2.97 mg/mouse, a CD50 (Proteus vulgaris (347); Pr vulgaris (Pr-347), buffered to pH 4.9 in aqueous solution) of 5.97 mg/mouse and a CD50 (St Au (Smith); buffered to pH 4.9 in aqueous solution) of 2.73 mg/mouse. It also gave an MIC (St Au CHP) of 7.81 µg/mL (≈ 15.1 µM), an MIC (St Au 6538P) of 1.95 µg/mL (≈ 3.78 µM) and an MIC (Ps Ae 10145) of 250 µg/mL (≈ 485 µM). The MIC (Kl Pn 10031) was 3.9 µg/mL (≈ 7.56 µM), the MIC (Pr Mi 9921) was 0.97 µg/mL (≈ 1.88 µM) and the MIC (Sa Pa 11737) was 0.97 µg/mL (≈ 1.88 µM). For the same compound, the MIC (En Ae 13048) was 250 µg/mL (≈ 485 µM).

`Cn1nnnc1SCC1=C(C(=O)O)N2C(=O)C(NC(=O)CCN3C(=O)CSC3=S)C2SC1` (stereo not drawn) was tested, and the CD50 (E. Coli (920); E. Coli (920), oral) was 3.05 mg/mouse, the CD50 (E. Coli (E-2)) was 3.30 mg/mouse and the oral antibacterial activity (E. Coli W-102) was “inactive”. For the same compound, the CD50 (Proteus vulgaris (347); Pr vulgaris (347), oral) was 5.90 mg/mouse and the CD50 (E. Coli (E-3)) was 2.12 mg/mouse.
